Publication PMC9848300, “Discovery of novel enasidenib analogues targeting inhibition of mutant isocitrate dehydrogenase 2 as antileukaemic agents” (Journal of Enzyme Inhibition and Medicinal Chemistry, 2023)
Read-outs that look alike come from different tables or passages of the source.

How the values were obtained:
RPMI-8226 = assay: NCI 60 antitumor screening (single dose / five doses); assay type: cell-based; settings: Homo sapiens
SR = assay: as above; assay type: cell-based; settings: Homo sapiens, read-out: Growth inhibition percentage (GI %)
EKVX = assay: as above; assay type: cell-based; settings: Homo sapiens, read-out: Growth inhibition percentage (GI %)
A549/ATCC = assay: NCI 60 antitumor screening (single dose); assay type: cell-based; settings: Homo sapiens; A549/ATCC (non-small cell lung cancer), single dose 10 μM; read-out: Growth inhibition percentage (GI %)
Method: (§1) Initially, the anticancer effects of target compounds have been assessed at a single (10 μM) dose. The obtained data have been reported as mean-graph of the percent growth (G%) of the treated cancer cells. Percentage growth inhibition (GI%) is calculated (100 − G%) and pronounced in Table 1. […] Target compounds in series (III) with manipulated linkers disclosed lower potency. Superiorly, eight s-triazine derivatives from the three series (6a, 6c, 6d, 7a, 7g, 7i, 7l, and 8b) have shown potent broad-spectrum anticancer activity against most the examined cell lines, whereas most of the remaining triazine derivatives, 20 derivatives, have exerted selective anti-proliferative actions towards certain cancer cell lines (Supplementary).
(§2) The antitumor screening was performed for 60 human cancer cell lines under the protocol of NCI (www.dtp.nci.nih.gov), the Drug Evaluation Branch, Bethesda, MD. All submitted compounds were nominated based on the degree of structural diversity and computer modelling techniques for evaluation of their anticancer activity. The screening process for antineoplastic activity passes through two successive levels, starting with the assessment of target compounds at a single dose of 10 μM against 60 cancer cell lines on nine types of human tumours. These experiments were done on a triplicate following. The output from the single‐dose screening was covered as a mean graph, and then, analysed by the COMPARE program. Finally, the compounds which disclosed subpanel cancer cell growth (G %) equal to or less than 10% in at least eight cancer cell lines get to pass the assessment against the 60 cell lines at five doses (0.01–100 μM). By using GraphPad Prism version 9.0 (Graphpad Software Inc., La Jolla, CA), GI50, TGI, as well as LC50 dose‐response parameters were computed and presented for each compound (Supplementary information)[55–57].

CAKI-1 = assay: NCI 60 antitumor screening (single dose); assay type: cell-based; settings: Homo sapiens
Method: as §1, §2

HCC-2998 = assay: NCI 60 antitumor screening (single dose); assay type: cell-based; settings: Homo sapiens; HCC-2998 (colon cancer), single dose 10 μM; read-out: Growth inhibition percentage (GI %)
Method: as §1, §2

HOP-62 = assay: NCI 60 antitumor screening (single dose); assay type: cell-based; settings: Homo sapiens; HOP-62 (non-small cell lung cancer), single dose 10 μM; read-out: Growth inhibition percentage (GI %)
Method: as §1, §2

HS 578T = assay: NCI 60 antitumor screening (single dose); assay type: cell-based; settings: Homo sapiens, read-out: Growth inhibition percentage (GI %)
Method: as §1, §2

KM 12 = assay: NCI 60 antitumor screening (single dose); assay type: cell-based; settings: Homo sapiens, KM12; KM 12 (colon cancer), single dose 10 μM; read-out: Growth inhibition percentage (GI %)
Method: as §1, §2

M14 = assay: NCI 60 antitumor screening (single dose); assay type: cell-based; settings: Homo sapiens
Method: as §1, §2

NCI-H226 = assay: NCI 60 antitumor screening (single dose); assay type: cell-based; settings: Homo sapiens; NCI-H226 (non-small cell lung cancer), single dose 10 μM; read-out: Growth inhibition percentage (GI %)
Method: as §1, §2

NCI-H23 = assay: NCI 60 antitumor screening (single dose); assay type: cell-based; settings: Homo sapiens; NCI-H23 (non-small cell lung cancer), single dose 10 μM; read-out: Growth inhibition percentage (GI %)
Method: as §1, §2

NCI-H322M = assay: NCI 60 antitumor screening (single dose); assay type: cell-based; settings: Homo sapiens; NCI-H322M (non-small cell lung cancer), single dose 10 μM; read-out: Growth inhibition percentage (GI %)
Method: as §1, §2

NCI-H460 = assay: NCI 60 antitumor screening (single dose); assay type: cell-based; settings: Homo sapiens; NCI-H460 (non-small cell lung cancer), single dose 10 μM; read-out: Growth inhibition percentage (GI %)
Method: as §1, §2

NCI-H522 = assay: NCI 60 antitumor screening (single dose); assay type: cell-based; settings: Homo sapiens; NCI-H522 (non-small cell lung cancer), single dose 10 μM; read-out: Growth inhibition percentage (GI %)
Method: as §1, §2

OVCAR-3 = assay: NCI 60 antitumor screening (single dose); assay type: cell-based; settings: Homo sapiens
Method: as §1, §2

OVCAR-4 = assay: NCI 60 antitumor screening (single dose); assay type: cell-based; settings: Homo sapiens
Method: as §1, §2

OVCAR-5 = assay: NCI 60 antitumor screening (single dose); assay type: cell-based; settings: Homo sapiens
Method: as §1, §2

OVCAR-8 = assay: NCI 60 antitumor screening (single dose); assay type: cell-based; settings: Homo sapiens
Method: as §1, §2

PC-3 = assay: NCI 60 antitumor screening (single dose); assay type: cell-based; settings: Homo sapiens
Method: as §1, §2

SK-OV-3 = assay: NCI 60 antitumor screening (single dose); assay type: cell-based; settings: Homo sapiens
Method: as §1, §2

SNB-19 = assay: NCI 60 antitumor screening (single dose); assay type: cell-based; settings: Homo sapiens; SNB-19 (CNS cancer), single dose 10 μM; read-out: Growth inhibition percentage (GI %)
Method: as §1, §2

TK-10 = assay: NCI 60 antitumor screening (single dose); assay type: cell-based; settings: Homo sapiens
Method: as §1, §2

U251 = assay: NCI 60 antitumor screening (single dose); assay type: cell-based; settings: Homo sapiens, U-251; U251 (CNS cancer), single dose 10 μM; read-out: Growth inhibition percentage (GI %)
Method: as §1, §2

SW-620 = assay: NCI 60 antitumor screening (single dose / five doses); assay type: cell-based, human; settings: Homo sapiens
MALME-3M = assay: as above; assay type: cell-based; settings: Homo sapiens, read-out: Growth inhibition percentage (GI %)
NCI/ADR-RES = assay: as above; assay type: cell-based; settings: Homo sapiens, read-out: Growth inhibition percentage (GI %)
[1] = RPMI-8226 (leukaemia), single dose 10 μM, read-out: Growth inhibition percentage (GI %)
[2] = SR (leukaemia), single dose 10 μM
[3] = EKVX (non-small cell lung cancer), single dose 10 μM
[4] = CAKI-1 (renal cancer), single dose 10 μM, read-out: Growth inhibition percentage (GI %)
[5] = HS 578T (breast cancer), single dose 10 μM
[6] = M14 (melanoma), single dose 10 μM, read-out: Growth inhibition percentage (GI %)
[7] = OVCAR-3 (ovarian cancer), single dose 10 μM, read-out: Growth inhibition percentage (GI %)
[8] = OVCAR-4 (ovarian cancer), single dose 10 μM, read-out: Growth inhibition percentage (GI %)
[9] = OVCAR-5 (ovarian cancer), single dose 10 μM, read-out: Growth inhibition percentage (GI %)
[10] = OVCAR-8 (ovarian cancer), single dose 10 μM, read-out: Growth inhibition percentage (GI %)
[11] = PC-3 (prostate cancer), single dose 10 μM, read-out: Growth inhibition percentage (GI %)
[12] = SK-OV-3 (ovarian cancer), single dose 10 μM, read-out: Growth inhibition percentage (GI %)
[13] = TK-10 (renal cancer), single dose 10 μM, read-out: Growth inhibition percentage (GI %)
[14] = SW-620 (colon cancer), single dose 10 μM, read-out: Growth inhibition percentage (GI %)
[15] = MALME-3M (melanoma), single dose 10 μM
[16] = NCI/ADR-RES (ovarian cancer), single dose 10 μM

SMILES	inhibition at 10 µM (RPMI-8226; [1]) [%]	inhibition at 10 µM (SR; [2]) [%]	inhibition at 10 µM (EKVX; [3]) [%]	inhibition at 10 µM (A549/ATCC) [%]	inhibition at 10 µM (CAKI-1; [4]) [%]	inhibition at 10 µM (HCC-2998) [%]	inhibition at 10 µM (HOP-62) [%]	inhibition at 10 µM (HS 578T; [5]) [%]	inhibition at 10 µM (KM 12) [%]	inhibition at 10 µM (M14; [6]) [%]	inhibition at 10 µM (NCI-H226) [%]	inhibition at 10 µM (NCI-H23) [%]	inhibition at 10 µM (NCI-H322M) [%]	inhibition at 10 µM (NCI-H460) [%]	inhibition at 10 µM (NCI-H522) [%]	inhibition at 10 µM (OVCAR-3; [7]) [%]	inhibition at 10 µM (OVCAR-4; [8]) [%]	inhibition at 10 µM (OVCAR-5; [9]) [%]	inhibition at 10 µM (SNB-19) [%]	inhibition at 10 µM (U251) [%]	also measured
Fc1cccc(/C=N/Nc2nc(N/N=C/c3cccc(F)c3)nc(N3CCOCC3)n2)c1 [compound 6e, 2,4-Bis[(E)-2-[(3-Fluorophenyl)methylidene]hydrazin-1-yl]-6-(morpholin-4-yl)-1,3,5-triazine]	33	60.2	10.9	6.5	11.3	-2.3	-5.63	-0.4	0.3	100	5.56	-1.55	3.82	5.44	4.23	19.3	0.54	-3.81	1.85	23.8	inhibition at 10 µM (OVCAR-8; [10]): 8.56%; inhibition at 10 µM (PC-3; [11]): 24.5%; inhibition at 10 µM (SK-OV-3; [12]): -17.7%; inhibition at 10 µM (TK-10; [13]): -28.1%; inhibition at 10 µM (SW-620; [14]): 34%; inhibition at 10 µM (MALME-3M; [15]): -44%; inhibition at 10 µM (NCI/ADR-RES; [16]): 8.29%
O=[N+]([O-])c1cccc(/C=N/Nc2nc(N/N=C/c3cccc([N+](=O)[O-])c3)nc(N3CCOCC3)n2)c1 [compound 6f, 2-(Morpholin-4-yl)-4,6-bis[(E)-2-[(3-nitrophenyl)methylidene]hydrazin-1-yl]-1,3,5-triazine]	–	–	–	28.6	–	-2.57	26.4	–	15	–	26.4	27.6	5.64	17	34.8	–	–	–	4.49	17.2	inhibition at 10 µM (RPMI-8226; RPMI-8226, read-out: Growth inhibition percentage (GI %)): 66.4%; inhibition at 10 µM (SR; SR): 66%; inhibition at 10 µM (EKVX; EKVX): 11%; inhibition at 10 µM (CAKI-1; CAKI-1, read-out: Growth inhibition percentage (GI %)): 29.5%; inhibition at 10 µM (HS 578T; Hs-578T): 16.7%; inhibition at 10 µM (M14; M14, read-out: Growth inhibition percentage (GI %)): 14%; inhibition at 10 µM (OVCAR-3; OVCAR-3, read-out: Growth inhibition percentage (GI %)): 19%; inhibition at 10 µM (OVCAR-4; OVCAR-4, read-out: Growth inhibition percentage (GI %)): 18.4%; inhibition at 10 µM (OVCAR-5; OVCAR-5, read-out: Growth inhibition percentage (GI %)): -17%; inhibition at 10 µM (OVCAR-8; OVCAR-8, read-out: Growth inhibition percentage (GI %)): 39.9%; inhibition at 10 µM (PC-3; PC-3, read-out: Growth inhibition percentage (GI %)): 37.9%; inhibition at 10 µM (SK-OV-3; SK-OV-3, read-out: Growth inhibition percentage (GI %)): -29%; inhibition at 10 µM (TK-10; TK-10, read-out: Growth inhibition percentage (GI %)): -45.7%; inhibition at 10 µM (SW-620; SW-620, read-out: Growth inhibition percentage (GI %)): 18.4%; inhibition at 10 µM (MALME-3M; Malme-3M): 6.12%; inhibition at 10 µM (NCI/ADR-RES; NCI/ADR-RES): 30.9%
CN(C)c1ccc(/C=N/Nc2nc(N/N=C/c3ccc(N(C)C)cc3)nc(N3CCOCC3)n2)cc1 [compound 6g, 4-[(1e)-(2-{4-[(E)-2-{[4-(dimethylamino)phenyl]methylidene}hydrazin-1-yl]-6-(morpholin-4-yl)-1,3,5-triazin-2-yl}hydrazin-1-ylidene)methyl]-N,N-dimethylaniline]	65	113	4.62	25.1	4.03	-2.9	-5.52	2.43	-3.9	-2.62	6.53	0.65	-0.33	83.3	1.08	-9.22	-3.79	-10.4	8.7	55.7	inhibition at 10 µM (OVCAR-8; [10]): 1.04%; inhibition at 10 µM (PC-3; [11]): 12.3%; inhibition at 10 µM (SK-OV-3; [12]): -9.91%; inhibition at 10 µM (TK-10; [13]): -10.2%; inhibition at 10 µM (SW-620; [14]): 16.2%; inhibition at 10 µM (MALME-3M; [15]): -14.2%; inhibition at 10 µM (NCI/ADR-RES; [16]): 0.17%
